# Measured values as given in US9084423B2, “Inhibition of bacterial biofilms with imidazole derivatives” (North Carolina State University, priority 2007, dated 2015).
# Where a name gives a salt, the structure may show the parent alone.
# Legend:
# P. aeruginosa = assay: Biofilm inhibition screen of TABLE 1, P. aeruginosa; type: cell-based, Pseudomonas aeruginosa; set-up: key: “X” denotes biofilm inhibition; details: 500 μM active compound, 24 hours
# Protocol: (§1) Each compound was assayed for the ability to inhibit the formation of P. aeruginosa biofilms. […] We employed a standard crystal violet reporter assay to assess for the formation of biofilms. Briefly, P. aeruginosa strain PAO1 was allowed to form biofilms in a multi-well plate in the absence or presence of our compounds. Planktonic (or free growing) bacteria were then removed, wells washed vigorously, and crystal violet added. Crystal violet stains the remaining bacteria which, following ethanol solubilization, can be quantitated by spectrophotometry (A540).
# (§2) Active compounds were tested for inhibition of biofilm formation using various bacterial strains. Assays were performed as reported above, with 500 μM active compound, and 24 hours. “X” denotes biofilm inhibition.
# H. Pacifica = assay: Biofilm inhibition screen of TABLE 1, H. pacifica; type: cell-based, Halomonas pacifica; set-up: key: “X” denotes biofilm inhibition; details: 500 μM active compound, 24 hours
# Protocol: as §1, §2
# [1] = test system: P. aeruginosa strain PAO1; assay: Static biofilm inhibition assay (crystal violet), PAO1; type: cell-based, Pseudomonas aeruginosa; details: for IC50: inhibition of biofilm formation, crystal violet, 24 hours
# Protocol: as §1
# (§3) An overnight culture of the bacterial strain being screened against was subcultured at an OD600 of 0.1 into the media used (listed below with strain) and then pipetted into test tubes along with a predetermined concentration of our compound of interest. Test tubes were then poured into tilted Petri dishes and 100 μL of media, strain and compound were then transferred into 96-well PVC microtiter plates. These microtiter plates were then covered, wrapped in Saran™ Wrap polyethylene film (S.C. Johnson, Racine, Wis.) and allowed to incubate at 37° C. for 24 hours. After that time, the medium was discarded and the plates were thoroughly washed with water. The remaining biofilm that was formed during incubation was stained with 100 μL of a 0.1% crystal violet solution and allowed to incubate at room temperature for 30 minutes. After 30 minutes, the crystal violet was discarded and washed thoroughly again with water. The remaining crystal violet that had stained the biofilm in the inside walls of the 96-well PVC plates was solubilized with 200 μL of 95% ethanol. The quantification of biofilm formation was accomplished by transferring 125 μL of the ethanol solution into a polystyrene microtiter dish, which was read by spectrophotometry (A540). After the background has been subtracted from each row, a percent inhibition can be calculated by dividing the amount of crystal violet in wells that contained compound by the amount of crystal violet in wells that contained bacteria only. Each concentration reported during the course of this study was repeated two to five times with each of those biofilm inhibition assays being done in 6 replicates each.
# (§4) An overnight culture of the wild type strain was subcultured at an OD600 of 0.10 into LBNS along with a predetermined concentration of the small molecule to be tested for biofilm inhibition. Samples were then aliquoted (100 μL) into the wells of a 96-well PVC microtiter plate. The microtiter dishes were covered and sealed before incubation under stationary conditions at 37° C. for 24 hours. After that time, the medium was discarded and the plates thoroughly washed with water. The wells were then inoculated with a 0.1% aqueous solution of crystal violet (100 μL) and allowed to stand at ambient temperature for 30 minutes. Following another thorough washing with water the remaining stain was solubilized with 200 μL of 95% ethanol. Biofilm inhibition was quantitated by measuring the OD540 for each well by transferring 125 μL of the ethanol solution into a fresh polystyrene microtiter dish for analysis.
# (§5) To examine each compound's ability to inhibit the formation of Pseudomonas aeruginosa biofilms, PAO1 and PA14 were employed as the target bacterial strains using a crystal violet reporter assay. G. A. O'Toole, R. Kolter, Mol. Microbiol. 1998, 28, 449. All compounds were initially screened at 500 μM for anti-biofilm activity.
# An overnight culture of the wild type strain was subcultured at an OD600 of 0.10 into LBNS along with a predetermined concentration of the small molecule to be tested for biofilm inhibition. Samples were then aliquoted (100 μL) into the wells of a 96-well PVC microtiter plate. The microtiter dishes were covered and sealed before incubation under stationary conditions at 37° C. for 24 hours, After that time, the medium was discarded and the plates thoroughly washed with water. […]
# P. aeruginosa PA14 = assay: Static biofilm inhibition assay (crystal violet), PA14; type: cell-based, Pseudomonas aeruginosa; details: for inhibition at 500 µM: PA14, 24 h; for IC50: inhibition of biofilm formation, crystal violet, 24 hours
# Protocol: as §3, §4, §5
# as §4, with “for 24 hours, After that” for “for 24 hours. After that”, “violet (100 pt) and allowed” for “violet (100 μL) and allowed”
# [2] = test system: planktonic P. aeruginosa PAO1; assay: Planktonic growth (growth curves, colony counts), PAO1; type: cell-based, Pseudomonas aeruginosa; details: growth curves and/or colony counts, presence vs absence of compound, at IC50 or as stated
# Excerpt: To answer the question of whether the compounds were antibiotics or true inhibitors of biofilm formation, we tested the ability of both compounds to inhibit growth of planktonic P. aeruginosa. Growth was quantitated by measuring optical density at 600 nm. […]
# [3] = test system: planktonic P. aeruginosa PA14; assay: Planktonic growth (growth curves, colony counts), PA14; type: cell-based, Pseudomonas aeruginosa; details: growth curves and/or colony counts, presence vs absence of compound, at IC50 or as stated
# [4] = listed as oroidin 4, Hydrochloride
# [5] = listed as oroidin 5, Hydrochloride
# [6] = listed as oroidin (5), Hydrochloride
# [7] = listed as sventrin 24, Hydrochloride
# [8] = listed as sventrin (6), Hydrochloride
smiles,measurement,setting,value
NC[C@@H]1Cc2nc(N)[nH]c2C[C@@H]1CN,P. aeruginosa biofilm inhibition,P. aeruginosa,X
Nc1nc(Cc2c[nH]c3ccccc23)c[nH]1,P. aeruginosa biofilm inhibition,P. aeruginosa,X
same,H. Pacifica biofilm inhibition,H. Pacifica,X
Nc1nc(/C=C/CNC(=O)c2cc(Br)c(Br)[nH]2)c[nH]1,H. Pacifica biofilm inhibition,H. Pacifica,X
NC1=N/C(=C\CCNC(=O)c2cc(Br)c(Br)[nH]2)C(=O)N1,H. Pacifica biofilm inhibition,H. Pacifica,X
"Cl.Cn1c(C(=O)NCCc2c[nH]c(N)n2)cc(Br)c1Br [Compound 27, 4,5-dibromo-1-methyl-pyrrole-2-carboxylic acid [2-(2-amino-1H-imidazol-4-yl)-ethyl]-amide hydrochloride]",inhibition at 500 µM,"[1]; Pseudomonas aeruginosa, PAO1",> 95%
same,IC50,"[1]; Pseudomonas aeruginosa, PAO1",165 ± 23 µM
same,inhibition at 500 µM,P. aeruginosa PA14; Pseudomonas aeruginosa,> 95%
same,IC50,"P. aeruginosa PA14; Pseudomonas aeruginosa, PA14",224 ± 22 µM
same,microbicidal effect on PAO1 planktonic growth (in words),[2],no microbicidal activity
same,microbicidal effect on PA14 planktonic growth (in words),[3],no microbicidal activity
"Cl.Cn1c(C(=O)NCCCCc2c[nH]c(N)n2)cc(Br)c1Br [Compound 30, 4,5-dibromo-1-methyl-pyrrole-2-carboxylic acid [4-(2-amino-1H-imidazol-4-yl)-butyl]-amide hydrochloride]",inhibition at 500 µM,"[1]; Pseudomonas aeruginosa, PAO1",> 95%
same,IC50,"[1]; Pseudomonas aeruginosa, PAO1",150 ± 17 µM
same,inhibition at 500 µM,P. aeruginosa PA14; Pseudomonas aeruginosa,> 95%
same,IC50,"P. aeruginosa PA14; Pseudomonas aeruginosa, PA14",126 ± 17 µM
same,microbicidal effect on PAO1 planktonic growth (in words),[2],no microbicidal activity
same,microbicidal effect on PA14 planktonic growth (in words),[3],no microbicidal activity
"Cl.Cn1c(C(=O)NCCc2c[nH]cn2)cc(Br)c1Br [Compound 40, 4,5-dibromo-1-methyl-pyrrole-2-carboxylic acid [2-(1H-imidazol-4-yl)-ethyl]-amide hydrochloride]",inhibition at 500 µM,"[1]; Pseudomonas aeruginosa, PAO1",73%
same,IC50,"[1]; Pseudomonas aeruginosa, PAO1",277 ± 35 µM
same,inhibition at 500 µM,P. aeruginosa PA14; Pseudomonas aeruginosa,82%
same,IC50,"P. aeruginosa PA14; Pseudomonas aeruginosa, PA14",203 ± 25 µM
same,microbicidal effect on PAO1 planktonic growth (in words),[2],not inhibiting biofilm development through microbicidal activity
same,microbicidal effect on PA14 planktonic growth (in words),[3],not inhibiting biofilm development through microbicidal activity
Nc1nc(CCCNC(=O)c2cc(Br)c[nH]2)c[nH]1 [drawing 73],P. aeruginosa biofilm inhibition,P. aeruginosa,X
same,H. Pacifica biofilm inhibition,H. Pacifica,X
Nc1nc(CCCNC(=O)c2cc(Br)c(Br)[nH]2)c[nH]1 [drawing 74],H. Pacifica biofilm inhibition,H. Pacifica,X
"Nc1ncc(/C=C/CNC(=O)c2cc(Br)c(Br)[nH]2)[nH]1 [oroidin, Oroidin Hydrochloride, reference compound]",inhibition at 500 µM,"[1]; Pseudomonas aeruginosa, PAO1",> 95%
same,IC50,"[1]; Pseudomonas aeruginosa, PAO1",190 µM
same,inhibition of PAO1 biofilm formation (in words),[1]; screen at 500 μM,very potent inhibitors
same,inhibition at 500 µM,P. aeruginosa PA14; Pseudomonas aeruginosa,> 95%
same,IC50,"P. aeruginosa PA14; Pseudomonas aeruginosa, PA14",166 µM
same,inhibition of PA14 biofilm formation (in words),P. aeruginosa PA14; screen at 500 μM,very potent inhibitors
same,microbicidal effect on PAO1 planktonic growth (in words),[2]; [4],remained unchanged
same,microbicidal effect on PAO1 planktonic growth (in words),[2]; [5],did not induce microbial cell death
same,microbicidal effect on PAO1 planktonic growth (in words),[2]; [6],not due to a bactericidal effect
same,microbicidal effect on PA14 planktonic growth (in words),[3]; [4],remained unchanged
same,microbicidal effect on PA14 planktonic growth (in words),[3]; [5],did not induce microbial cell death
same,microbicidal effect on PA14 planktonic growth (in words),[3]; [6],not due to a bactericidal effect
"Cn1c(C(=O)NC/C=C/c2cnc(N)[nH]2)cc(Br)c1Br [sventrin, Sventrin Hydrochloride, reference compound]",IC50,[1],75 ± 5 µM
same,IC50,P. aeruginosa PA14,115 ± 3 µM
same,microbicidal effect on PAO1 planktonic growth (in words),[2]; [7],did not induce microbial cell death
same,microbicidal effect on PAO1 planktonic growth (in words),[2]; [8],not due to a bactericidal effect
same,microbicidal effect on PA14 planktonic growth (in words),[3]; [7],did not induce microbial cell death
same,microbicidal effect on PA14 planktonic growth (in words),[3]; [8],not due to a bactericidal effect
